Test results from patent US20250326748A1, “COMPOUNDS AND METHODS FOR MODULATING SPLICING” (REMIX THERAPEUTICS INC., priority 2022, published 2025).
Where a name gives a salt, the structure may show the parent alone. Read-outs that look alike come from different tables or passages of the source.

Legend:
MYB mRNA = test: Splicing RT-qPCR assay, MYB canonical (CJ) and alternative (AJ) junction mRNA; type: cell-based, human; details: Homo sapiens; for IC50: canonical junction mRNA; for AC50: alternative junction mRNA, read-out: MYB AJ (AC50, increase in AJ mRNA)
Procedure, shortened: (§1)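 Cmpd 24 h, 37 °C/5% CO2; 11-pt 3x serial dilution from 10 uM final; DMSO max 0.25%. Cells: A673 (DMEM/10% FBS, pre-adhered 24 h) or K562 (IMDM/10% FBS). Lyse, DNase I, then 1-step RT-qPCR for CJ and AJ; housekeeping-normalized.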

HTT mRNA = test: Splicing RT-qPCR assay, HTT canonical (CJ) and alternative (AJ) junction mRNA; type: cell-based, human; details: Homo sapiens; for IC50: canonical junction mRNA; for AC50: alternative junction mRNA, read-out: HTT AJ (AC50, increase in AJ mRNA)
Procedure, shortened: as §1

K562 cells = test: Cell viability, Cell Titer Glo 2.0 assay, K562; details: 72 hours
Method: Compounds described herein were screened for toxicity in K562 (human chronic myelogenous leukemia) and SH-SY5Y (human neuroblastoma) cells using a Cell Titer Glo 2.0 assay.
• Promega CellTiter-Glo® 2.0 Cell Viability Assay (cat #G9241) • Corning 384-well TC-treated microplates (cat #3570)
Cells were plated at 500 cells/well (K562 cells) in 45 μL of IMDM supplemented with 10% FBS in a 384-well opaque plate. Wells containing only medium were used as a blank control. Test compounds (e.g., compounds of Formula (I) or (II)) were first serially diluted in DMSO then diluted 1:100 with IMDM+10% FBS. The final concentration of DMSO was 0.1% in each well. The cells were incubated for 72 hours at 37° C. and 5% CO2 before assaying with Cell Titer Glo 2.0 reagent.

[1] = qPCR panel, read-out: MYB CJ (decrease in CJ mRNA levels, IC50)
[2] = RT-qPCR, A673 or K562 cells, 24 hours treatment
[3] = RT-qPCR, A673 or K562 cells, 24 hours treatment, read-out: MYB CJ (IC50, decrease in CJ mRNA)
[4] = 24 h, RT-qPCR, A673 or K562 cells, 24 hours treatment, read-out: HTT CJ (IC50, decrease in CJ mRNA)
[5] = qPCR panel, read-out: HTT CJ (decrease in CJ mRNA levels, IC50)

SMILES | IC50 (MYB mRNA; [1]) [nM] | AC50 (MYB mRNA; [2]) [nM] | IC50 (MYB mRNA; [3]) [nM] | IC50 (HTT mRNA; [4]) [nM] | IC50 (HTT mRNA; [5]) [nM] | AC50 (HTT mRNA; [2]) [nM] | Effect on Cell Viability, K562 (K562 cells)
C[C@@H]1CN(c2cnc3nc(-c4cc5cn(C)nc5cc4O)cc(Cl)c3c2)C[C@@H](C)N1 [Compound 243, 5-{4-chloro-6-[(3R,5R)-3,5-dimethylpiperazin-1-yl]-1,8-naphthyridin-2-yl}-2-methylindazol-6-ol hydrochloride] | 100 to 1000 | 100 to 1000 | 100 to 1000 | 1000 to 10000 | 1000 to 10000 | 1000 to 10000 | B (100-1000 nM)
Cc1c(O)c(-c2ncc3cc(N4C[C@@H](C)N[C@@H](C)C4)cnc3n2)cc2cn(C)nc12 [Compound 214] | 100 to 1000 | 100 to 1000 | 100 to 1000 | 100 to 1000 | 100 to 1000 | 1000 to 10000 | B (100-1000 nM)
CNC1CCN(c2cnc3nc(-c4cc5cn(C)nc5c(C)c4O)ccc3n2)C1 (centres unmarked) [Compound 192, 2,7-dimethyl-5-{2-[3-(methylamino)337pyrrolidine-1-yl]pyrido[2,3-b]pyrazin-6-yl}indazol-6-ol] | 100 to 1000 | 100 to 1000 | 100 to 1000 | 100 to 1000 | 100 to 1000 | 100 to 1000 | B (100-1000 nM)
C[C@@H]1CN(c2cnc3nc(-c4cc5cn(C)nc5c(F)c4O)cc(C#N)c3c2)C[C@H](C)N1 [Compound 266, 6-[(3R,5S)-3,5-dimethylpiperazin-1-yl]-2-(7-fluoro-6-hydroxy-2-methylindazol-5-yl)-1,8-naphthyridine-4-carbonitrile hydrochloride] | < 100 | 100 to 1000 | < 100 | 100 to 1000 | 100 to 1000 | 1000 to 10000 | A (<100 nM)
Cn1cc2cc(-c3cnc4cc(N5CCC(NC6CC6)C5)ccc4n3)c(O)c(F)c2n1 (centres unmarked) [Compound 175, 5-[6-[3-(cyclopropylamino)pyrrolidin-1-yl]quinoxalin-2-yl]-7-fluoro-2-methyl-indazol-6-ol] | < 100 | < 100 | < 100 | < 100 | < 100 | < 100 | A (<100 nM)
Cn1cc2cc(-c3cnc4nc(N5CCNCC5)cc(Cl)c4c3)cc(F)c2n1 [Compound 101, 4-chloro-6-(7-fluoro-2-methyl-2H-indazol-5-yl)-2-(piperazin-1-yl)-1,8-naphthyridine] | 100 to 1000 | < 100 | 100 to 1000 | 1000 to 10000 | 1000 to 10000 | 1000 to 10000 | B (100-1000 nM)
Cc1c(O)c(-c2ccc3nc(N4C[C@@H](C)N[C@@H](C)C4)cnc3n2)cc2cn(C)nc12 [Compound 195, 5-{2-[(3R,5S)-3,5-dimethylpiperazin-1-yl]pyrido[2,3-b]pyrazin-6-yl}-2,7-dimethylindazol-6-ol] | 100 to 1000 | 100 to 1000 | 100 to 1000 | 1000 to 10000 | 1000 to 10000 | > 10000 | B (100-1000 nM)
Cc1c(O)c(-c2ncc3cc(N4CC[C@H](N)C4)cnc3n2)cc2cn(C)nc12 [Compound 160, (S)-5-(6-(3-aminopyrrolidin-1-yl)pyrido[2,3-d]pyrimidin-2-yl)-2,7-dimethyl-2H-indazol-6-ol 2,2,2-trifluoroacetate] | < 100 | < 100 | < 100 | 100 to 1000 | 100 to 1000 | 100 to 1000 | B (100-1000 nM)
